Source: patent US20230031954A1, “TETRACYCLINE COMPOUNDS AND METHODS OF TREATMENT” (Tetraphase Phamaceuticals, Inc., priority 2016, published 2023)

How the values were obtained:
[1] = tested on: THP-1 cells; experiment: THP-1 anti-proliferation assay (Cell Titer GLO, 72 hr); assay type: cell-based; conditions: Homo sapiens
Experimental: The inhibition of eukaryotic cell culture growth was established using THP-1 cells (ATCC Cat. #TIB-202), a human acute monocytic leukemia cell line. These are suspension cells. This cell-based assay for eukaryotic culture growth inhibition was performed in 384-well plate format to determine the in vitro cytotoxicity of the test compounds.
Compounds were solubilized in water. Compounds were diluted 1:2 in assay media and 1:2 serial dilutions were performed in 50:50 media:water mix. The high dose was 40 μM, 10% water final. 5 μL of compound at 5× the final concentration was dispensed to the 384 assay plate. 20 μL of THP-1 cells were added.
Compounds were plated in dose response format (10% water final concentration), followed by the addition of cells. Cells were grown and incubated with compounds in RPMI-1640 medium/pen/strep/L-glutamine/10% FBS/2-mercaptoethanol for 72 hr at 37° C. with 5% CO2. At the end of the incubation time, cells were assayed for viability using Cell Titer GLO (Promega).

[2] = tested on: MV4-11 cell line; experiment: MV4-11 anti-proliferation assay (CellTiterGlo, 72 hour); assay type: cell-based; conditions: Homo sapiens, MV4-11 cells
Experimental: MV4-11 cell line (MV-4-11, CRL-9591™) was obtained from American Type Culture Collection (ATCC). Cells were grown in a T-75 flask in RPMI Medium (GIBCO, Catalog No. 11875-093) containing 10% fetal bovine serum (ATCC, Catalog No. 30-2020) and penicillin-streptomycin (ATCC, Catalog No. 30-2300) at 37° C. in a humidified, 5% CO2 incubator.
(§1) 50 μL of cells (10,000 cells/well) were plated in a 96-well plate and incubated overnight at 37° C. in a humidified, 5% CO2 incubator. The next day, 50 μL of medium containing 3-fold serially diluted compounds in duplicate was added to the wells such that the starting concentration of the compound in the first pair of the wells was 10 μM. After 72 hour incubation with the compound, cell viability was measured in a luminometer after the addition of 100 μL/well CellTiterGlo reagent (Promega) as recommended by the manufacturer. The IC50 values for the compounds were calculated using SoftMax software.

[3] = tested on: MOLT4 cell line; experiment: Proliferation assay in MOLT4 cell line (CellTiterGlo, 72 hour); assay type: cell-based; conditions: Homo sapiens, MOLT-4, MOLT4 cells
Experimental: (§2) Compounds 1, 2, 3a, 4a and 5 as well as certain Compound included in FIGS. 15A-15M, 16A-16F and 17A-17D were tested in the following cell lines: MOLT4 and K562. Compounds 1, 2, 3a, 4a and 5 were also tested in the cell line HL60.
(§3) The MOLT4 cell line (CRL-1582™) and K562 cell line (CCL-243™) were obtained from American Type Culture Collection (ATCC). They were grown in a T-75 flask in RPMI Medium (GIBCO, Catalog No. 11875-093) containing 10% fetal bovine serum (ATCC, Catalog No. 30-2020) and penicillin-streptomycin (ATCC, Catalog No. 30-2300) at 37° C. in a humidified, 5% CO2 incubator. The HL60 cell line (CCL-240™) was obtained from American Type Culture Collection (ATCC). They were grown in a T-75 flask in DMEM Medium (GIBCO, Catalog No. 11965-092) containing 20% fetal bovine serum (ATCC, Catalog No. 30-2020) and penicillin-streptomycin (ATCC, Catalog No. 30-2300) at 37° C. in a humidified, 5% CO2 incubator.
as §1, with “(8,500” for “(10,000”

[4] = tested on: K562 cell line; experiment: Proliferation assay in K562 cell line (CellTiterGlo, 72 hour); assay type: cell-based; conditions: Homo sapiens, K562 cells
Experimental: as §2, §3
as §1, with “(8,500” for “(10,000”

[5] = tested on: HL60 cell line; experiment: Proliferation assay in HL60 cell line (CellTiterGlo, 72 hour); assay type: cell-based; conditions: Homo sapiens, HL-60, HL60 cells
Experimental: as §2, §3
as §1, with “(8,500” for “(10,000”

[6] = tested on: subcutaneous MV4-11 leukemia model; experiment: MV4-11 xenografts: in vivo anti-tumor efficacy in CB17 SCID mice; set-up: species or system mouse; conditions: for tumor response: dosed at maximum tolerated dose, cytarabine 100 mg/kg I.P. QD, tigecycline 50 mg/kg I.P. BID
Experimental: The in vivo anti-tumor efficacy of Compounds 3a, 4a and 5 in the subcutaneous MV4-11 leukemia model in CB17 SCID mice was tested.
The MV4-11 cells (ATCC-CRL-9591) were maintained in vitro as a suspension culture at a density of 0.2-1.5×10^6 cells/ml in RPMI1640 medium supplemented with 10% heat inactivated fetal bovine serum, 100 U/ml penicillin and 100 μg/ml streptomycin at 37° C. in an atmosphere of 5% CO2 in air. The tumor cells were routinely subcultured twice weekly. The cells growing in an exponential growth phase were harvested and counted for tumor inoculation.
CB17 SCID, female, 6-8 weeks, weighing approximately 18-22 g.
Each mouse was inoculated subcutaneously at the right flank with MV4-11 tumor cells (10×10^6) in 0.2 ml of PBS (with Matrigel 1:1) for tumor development. The animals were randomized and treatment was started when the average tumor volume reached approximately 150-200 mm^3 for the efficacy study. The test article administration and the animal numbers in each group are shown below.
The major endpoint monitored was tumor growth delay or cure. Tumor sizes were measured twice weekly in two dimensions using a caliper, and the volume expressed in mm^3 using the formula: V=0.5 a×b^2 where a and b are the long and short diameters of the tumor, respectively. The tumor sizes were then used for the calculations of both T-C and T/C values. T-C is calculated with T as the median time (in days) required for the treatment group tumors to reach a predetermined size (e.g., 1,000 mm^3), and C is the median time (in days) for the control group tumors to reach the same size. […]
TGI was calculated for each group using the formula: TGI (%)=[1−(Ti−T0)/(Vi−V0)]×100; Ti is the average tumor volume of a treatment group on a given day, T0 is the average tumor volume of the treatment group on the first day of treatment, Vi is the average tumor volume of the vehicle control group on the same day with Ti, and V0 is the average tumor volume of the vehicle group on the first day of treatment.

[7] = tested on: AML ex-vivo bone marrow samples; experiment: Antiproliferative activity against 15 AML ex-vivo bone marrow samples (Vivia's Native Environment cell depletion assay); assay type: cell-based, human; conditions: 48 hours post drug exposure
Experimental: Antiproliferative activity of Compound 3a and cytarabine was measured against 15 AML ex-vivo bone marrow samples (including two cytarabine-resistant samples). The assay used was Vivia's Native Environment cell depletion assay. An outline of the study is below: • Five different concentrations of each drug was used as a monotherapy • The incubation time point for measurement was 48 hours post drug exposure The results are shown graphically in FIG. 6.

[8] = tested on: mitochondrial protein synthesis; experiment: Intact isolated rat heart mitochondrial protein synthesis assay ([S35]-methionine incorporation); assay type: biochemical; conditions: isolated rat heart mitochondria, 0.15 to 40 μM; read-out: dose-response curve IC50, mitochondrial protein synthesis
Experimental: The effect of Compound 3a on mitochondrial protein synthesis was determined using an intact isolated rat heart mitochondrial protein synthesis assay previously described [See, 1, 2 below]. Intact, highly coupled mitochondria isolated from normal rat hearts were incubated in an incubation medium containing [S^35]-methionine. The compounds were diluted to generate a final dose-response curve from 0.15 to 40 μM. The rate of incorporation of [S^35]-methionine into protein was measured at 20, 40, and 60 minutes of incubation for each sample using a filter paper disc assay and expressed as pmol methionine incorporated per mg mitochondrial protein as described [1, 2, 3 below]. The time course data for control and all drug concentrations were nearly linear. The slope of each time-course data plot is calculated as the least squares best fit line through zero and the three time points for each sample. The rate of protein synthesis varies modestly with each mitochondrial preparation (mean and SEM=20.3+/−2.4 pm/mg protein). To normalize for this variability, the rates were expressed as a percent of the rate of the control line for each preparation of mitochondria.
Each experiment was repeated three times.
Dose-response curves were obtained by expressing the percent of control obtained for each concentration of Compound 3a against the concentration of Compound 3a. […]

Row | Structure (SMILES) | IC50 [1] [µM] | IC50 [2] [µM] | IC50 [3] [µM] | IC50 [4] [µM] | IC50 [5] [µM] | IC50 [8] [µM] | tumor response [6] | ex vivo activity against the tumor cells from frozen bone marrow of the AML patients ([7]; monotherapy) | EC50 ([7]; Homo sapiens, 15 AML ex-vivo bone marrow samples) [µM] | tumor shrinkage ([6]; all animals treated, 12.5 mg/kg I.P., dose 1 and dose 2 of Table 1C) [%]
1 | CN(C)c1cc(NC(=O)CNC(C)(C)C)c(O)c2c1C[C@H]1C[C@H]3[C@H](N(C)C)C(O)=C(C(N)=O)C(=O)[C@@]3(O)C(O)=C1C2=O [Tigecycline, tigecycline, reference compound] | 29.1 | 4.64 | 5.1 | 7.2 | 15.4 |  | no tumor response |  |  | 
2 | Nc1ccn([C@@H]2O[C@H](CO)[C@@H](O)[C@@H]2O)c(=O)n1 [Cytarabine] |  |  |  |  |  |  | no tumor response |  |  | 

Now from value to compound, other results behind:

Row | IC50 [1] [µM] | IC50 [2] [µM] | IC50 [3] [µM] | IC50 [4] [µM] | IC50 [5] [µM] | IC50 [8] [µM] | Structure (SMILES) | tumor response [6] | ex vivo activity against the tumor cells from frozen bone marrow of the AML patients ([7]; monotherapy) | EC50 ([7]; Homo sapiens, 15 AML ex-vivo bone marrow samples) [µM] | tumor shrinkage ([6]; all animals treated, 12.5 mg/kg I.P., dose 1 and dose 2 of Table 1C) [%]
3 | 0.75 | 0.1 | 0.12 | 0.11 | 0.37 | 0.7 | CCN1CCC[C@H]1c1cc(O)c2c(c1OC)C[C@H]1C[C@H]3[C@H](N)C(O)=C(C(N)=O)C(=O)[C@@]3(O)C(O)=C1C2=O [Compound 3a] |  | potent ex vivo activity | 0.17 | ≥ 70
4 | 0.64 | 0.17 | 0.13 | 0.16 | 0.51 |  | NC(=O)C1=C(O)[C@@H](N)[C@@H]2C[C@@H]3Cc4c(F)cc(NC(=O)CN5CCCC5)c(O)c4C(=O)C3=C(O)[C@]2(O)C1=O [Compound 5] |  |  |  | 
5 | 0.9 | 0.13 | 0.13 | 0.13 | 0.41 |  | CCN[C@@H]1C(O)=C(C(N)=O)C(=O)[C@@]2(O)C(O)=C3C(=O)c4c(O)cc([C@@H]5CCCN5CC)c(OC)c4C[C@H]3C[C@@H]12 (single isomer, unassigned) [Compound 4a] |  |  |  | 
